# *: point of attachment. Biotin = O=C1N[C@H]2[C@H](CS[C@H]2CCCCC(=O)*)N1
# Experiments:
# [1] = biological target: T1, MMSC2 PDZ domain 11 (P2) (Homo sapiens, UniProt O75970); experiment: PDZ binding assay (ELISA), PDZ domain 11; settings: immobilized GST-PDZ domain 11 (P2); biotinylated peptide pre-bound to streptavidin-alkaline phosphatase; colorimetric phosphatase assay
# T1 construct: 1691-1772; made in house; host or cells: E. coli
# T1 sequence (O75970 1691-1772 isoform O75970-3): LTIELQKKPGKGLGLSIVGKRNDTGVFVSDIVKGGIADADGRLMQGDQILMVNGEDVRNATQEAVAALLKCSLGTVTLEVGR
# Source text: (§1) cDNAs encoding each of the MMSC2 PDZ domains (amino acid residues identified in Table 1), and any desired control proteins, were generated by PCR and subcloned as glutathione S-transferase (GST) fusions in pGEX vectors (Pharmacia). After sequencing to confirm expression construct integrity, the resulting clones were expressed in E. coli and the desired fusion proteins isolated with glutathione-agarose and recovered with glutathione elution. These fusion proteins or control proteins were then adsorbed to different wells of a 96-well ELISA plate and remaining sites blocked with BSA. Synthetic commercially synthesized peptides encoding the desired PDZ-binding domain (i.e., the 16 C-terminal amino acids of MMAC1, or the C-terminal peptide sequences of interacting proteins identified by the approach of Example 2, or the C-terminal peptide sequences identified by the approach of Example 3), or a control peptide, and biotinylated at the amino-terminus, were pre-bound to streptavidin-alkaline phosphatase in a 4:1 molar ratio. […] Bound peptide/streptavidin-alkaline phosphatase complex was then quantitated by a colorimetric phosphatase assay read on a 96-well plate reader. […]
# (§2) The relative affinity of each of the 13 PDZ domains encoded by MMSC2 for an MMAC1 C-terminal PDZ peptide as measured by an ELISA assay is set forth in Table 2.
# [2] = biological target: T2, MMSC2 PDZ domain 6 (P11) (Homo sapiens, UniProt O75970); experiment: PDZ binding assay (ELISA), PDZ domain 6; settings: immobilized GST-PDZ domain 6 (P11); biotinylated peptide pre-bound to streptavidin-alkaline phosphatase; colorimetric phosphatase assay
# T2 construct: 1007-1090; made in house; host or cells: E. coli
# T2 sequence (O75970 1007-1090 isoform O75970-3): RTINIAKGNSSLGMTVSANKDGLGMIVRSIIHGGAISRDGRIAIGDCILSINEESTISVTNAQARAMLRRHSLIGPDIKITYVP
# Source text: as §1, §2
# [3] = biological target: T3, MMSC2 PDZ domain 7 (P9) (Homo sapiens, UniProt O75970); experiment: PDZ binding assay (ELISA), PDZ domain 7; settings: for A405: immobilized GST-PDZ domain 7 (P9), biotinylated peptide pre-bound to streptavidin-alkaline phosphatase, colorimetric phosphatase assay
# T3 construct: 1150-1241; made in house; host or cells: E. coli
# T3 sequence (O75970 1150-1241 isoform O75970-3): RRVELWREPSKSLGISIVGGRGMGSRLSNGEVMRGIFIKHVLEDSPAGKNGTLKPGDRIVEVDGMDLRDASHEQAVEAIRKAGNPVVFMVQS
# Source text: (§3) cDNAs encoding each of the MMSC2 PDZ domains (amino acid residues identified in Table 1), and any desired control proteins, were generated by PCR and subcloned as glutathione S-transferase (GST) fusions in pGEX vectors (Pharmacia). After sequencing to confirm expression construct integrity, the resulting clones were expressed in E. coli and the desired fusion proteins isolated with glutathione-agarose and recovered with glutathione elution. These fusion proteins or control proteins were then adsorbed to different wells of a 96-well ELISA plate and remaining sites blocked with BSA. Synthetic commercially synthesized peptides encoding the desired PDZ-binding domain (i.e., the 16 C-terminal amino acids of MMAC1, or the C-terminal peptide sequences of interacting proteins identified by the approach of Example 2, or the C-terminal peptide sequences identified by the approach of Example 3), or a control peptide, and biotinylated at the amino-terminus, were pre-bound to streptavidin-alkaline phosphatase in a 4:1 molar ratio. The biotinylated peptide streptavidin-alkaline phosphatase complexes were then blocked with free biotin. These pre-bound peptide streptavidin-alkaline phosphatase complexes were then incubated with the immobilized PDZ domains in wash buffer containing PBS, BSA and triton-X100. Unbound material was removed with repeated washes. Bound peptide/streptavidin-alkaline phosphatase complex was then quantitated by a colorimetric phosphatase assay read on a 96-well plate reader. The following peptides were used in the initial study:
# as §2
# [4] = biological target: T4, MMSC2 PDZ domain 4 (P10) (Homo sapiens, UniProt O75970); experiment: PDZ binding assay (ELISA), PDZ domain 4; settings: immobilized GST-PDZ domain 4 (P10); biotinylated peptide pre-bound to streptavidin-alkaline phosphatase; colorimetric phosphatase assay
# T4 construct: 555-632; made in house; host or cells: E. coli
# T4 sequence (O75970 555-632 isoform O75970-3): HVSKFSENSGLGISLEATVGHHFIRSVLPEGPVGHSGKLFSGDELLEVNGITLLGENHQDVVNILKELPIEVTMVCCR
# Source text: as §1, §2
# [5] = biological target: T5, MMSC2 PDZ domain 1 (P15) (Homo sapiens, UniProt O75970); experiment: PDZ binding assay (ELISA), PDZ domain 1; settings: immobilized GST-PDZ domain 1 (P15); biotinylated peptide pre-bound to streptavidin-alkaline phosphatase; colorimetric phosphatase assay
# T5 construct: 136-222; made in house; host or cells: E. coli
# T5 sequence (O75970 136-222 isoform O75970-3): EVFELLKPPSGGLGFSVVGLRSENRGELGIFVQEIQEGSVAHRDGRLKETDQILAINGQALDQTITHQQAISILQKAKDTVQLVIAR
# Source text: as §1, §2
# [6] = biological target: T6, MMSC2 PDZ domain 3 (P13) (Homo sapiens, UniProt O75970); experiment: PDZ binding assay (ELISA), PDZ domain 3; settings: immobilized GST-PDZ domain 3 (P13); biotinylated peptide pre-bound to streptavidin-alkaline phosphatase; colorimetric phosphatase assay
# T6 construct: 376-461; made in house; host or cells: E. coli
# T6 sequence (O75970 376-461 isoform O75970-3): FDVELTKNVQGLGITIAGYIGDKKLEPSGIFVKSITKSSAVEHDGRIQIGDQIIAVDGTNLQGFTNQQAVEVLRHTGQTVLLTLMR
# Source text: as §1, §2
# [7] = biological target: T7, MMSC2 PDZ domain 5 (P12) (Homo sapiens, UniProt O75970); experiment: PDZ binding assay (ELISA), PDZ domain 5; settings: immobilized GST-PDZ domain 5 (P12); biotinylated peptide pre-bound to streptavidin-alkaline phosphatase; colorimetric phosphatase assay
# T7 construct: 699-785; made in house; host or cells: E. coli
# T7 sequence (O75970 699-785 isoform O75970-3): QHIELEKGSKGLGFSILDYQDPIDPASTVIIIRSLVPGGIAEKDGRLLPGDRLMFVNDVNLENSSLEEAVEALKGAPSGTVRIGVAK
# Source text: as §1, §2
# [8] = biological target: T8, MMSC2 PDZ domain 10 (P1) (Homo sapiens, UniProt O75970); experiment: PDZ binding assay (ELISA), PDZ domain 10; settings: for A405: immobilized GST-PDZ domain 10 (P1), biotinylated peptide pre-bound to streptavidin-alkaline phosphatase, colorimetric phosphatase assay
# T8 construct: 1595-1677; made in house; host or cells: E. coli
# T8 sequence (O75970 1595-1677 isoform O75970-3): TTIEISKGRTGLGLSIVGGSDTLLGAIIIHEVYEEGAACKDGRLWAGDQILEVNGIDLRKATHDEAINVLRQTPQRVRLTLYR
# Source text: as §3, §2
# [9] = biological target: T9, MMSC2 PDZ domain 13 (P4) (Homo sapiens, UniProt O75970); experiment: PDZ binding assay (ELISA), PDZ domain 13; settings: for A405: immobilized GST-PDZ domain 13 (P4), biotinylated peptide pre-bound to streptavidin-alkaline phosphatase, colorimetric phosphatase assay
# T9 construct: 1953-2037; made in house; host or cells: E. coli
# T9 sequence (O75970 1953-2037 isoform O75970-3): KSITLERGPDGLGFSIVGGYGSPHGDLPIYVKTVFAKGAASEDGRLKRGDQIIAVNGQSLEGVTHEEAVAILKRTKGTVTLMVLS
# Source text: as §3, §2
# [10] = biological target: T10, MMSC2 PDZ domain 2 (P14) (Homo sapiens, UniProt O75970); experiment: PDZ binding assay (ELISA), PDZ domain 2; settings: immobilized GST-PDZ domain 2 (P14); biotinylated peptide pre-bound to streptavidin-alkaline phosphatase; colorimetric phosphatase assay
# T10 construct: 256-335; made in house; host or cells: E. coli
# T10 sequence (O75970 256-335 isoform O75970-3): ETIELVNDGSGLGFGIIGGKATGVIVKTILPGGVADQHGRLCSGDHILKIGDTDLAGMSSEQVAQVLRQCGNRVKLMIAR
# Source text: as §1, §2
# [11] = biological target: T11, MMSC2 PDZ domain 8 (P8) (Homo sapiens, UniProt O75970); experiment: PDZ binding assay (ELISA), PDZ domain 8; settings: immobilized GST-PDZ domain 8 (P8); biotinylated peptide pre-bound to streptavidin-alkaline phosphatase; colorimetric phosphatase assay
# T11 construct: 1316-1398; made in house; host or cells: E. coli
# T11 sequence (O75970 1316-1398 isoform O75970-3): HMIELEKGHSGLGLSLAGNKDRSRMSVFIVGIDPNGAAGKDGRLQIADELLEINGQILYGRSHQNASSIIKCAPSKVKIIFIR
# Source text: as §1, §2
# [12] = biological target: T12, MMSC2 PDZ domain 9 (P7) (Homo sapiens, UniProt O75970); experiment: PDZ binding assay (ELISA), PDZ domain 9; settings: immobilized GST-PDZ domain 9 (P7); biotinylated peptide pre-bound to streptavidin-alkaline phosphatase; colorimetric phosphatase assay
# T12 construct: 1439-1529; made in house; host or cells: E. coli
# T12 sequence (O75970 1439-1529 isoform O75970-3): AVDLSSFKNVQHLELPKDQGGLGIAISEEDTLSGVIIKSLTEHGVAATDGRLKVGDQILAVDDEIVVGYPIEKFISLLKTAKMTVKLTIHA
# Source text: as §1, §2
# [13] = biological target: T13, MMSC2 PDZ domain 12 (P3) (Homo sapiens, UniProt O75970); experiment: PDZ binding assay (ELISA), PDZ domain 12; settings: immobilized GST-PDZ domain 12 (P3); biotinylated peptide pre-bound to streptavidin-alkaline phosphatase; colorimetric phosphatase assay
# T13 construct: 1828-1913; made in house; host or cells: E. coli
# T13 sequence (O75970 1828-1913 isoform O75970-3): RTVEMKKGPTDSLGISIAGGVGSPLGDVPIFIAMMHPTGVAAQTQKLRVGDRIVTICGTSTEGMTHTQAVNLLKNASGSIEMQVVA
# Source text: as §1, §2
Substance,A405 [1],A405 [2],"interaction of PDZ domain with MMAC1 (in words) ([3]; PDZ domain number 7, 7 appearing stronger)",A405 [3],A405 [4],A405 [5],A405 [6],A405 [7],interaction of PDZ domain with MMAC1 (in words) ([8]; PDZ domain number 10),A405 [8],interaction of PDZ domain with MMAC1 (in words) ([9]; PDZ domain number 13),A405 [9],A405 [10],A405 [11],A405 [12],A405 [13]
Biotin-ENEPFDEDQHTQITKV-OH [MMAC1],0.012,0.016,interact,0.667,0.024,0.011,0.006,0.000,interact,0.174,interact,0.456,0.001,0.006,0.017,0.003
"Biotin-SGSGILAPPVPPRNTR-OH [SH3, reference compound]",0.009,0.017,–,0.006,0.010,0.007,0.008,0.005,–,0.002,–,0.006,0.006,0.008,0.009,0.011

# From US20020115104A1, “MMSC2 - an MMAC1 interacting protein” (priority 1998, published 2002)
